Consider one compound from the NIST ThermoML archive (doi:10.1021/acs.jced.9b00844).

Data set [1] in a line: Molar enthalpy of transition or fusion. To be noted: Crystal; DSC.
The conditions of data set [2]: Crystal; DSC.

± gives the expanded uncertainty stated by the source.

On to `N=C(N)NC(=N)NCCc1ccccc1` [N-(2-phenylethyl)imidodicarbonimidic diamide], for which the “Molar enthalpy of transition or fusion” value in data set [1] stood at 2.78 ± 0.179 kcal/mol. Besides, the Triple point temperature in data set [2] is listed as 446.85 ± 1.2 K.
